Starred links: 1 amine or outer side, 2 acyl side, 3 side chain; linkers in the order of their positions; H or OH if unused. Positions of bridges follow the written chain, without caps; N, C: chain ends. Non-standard residues stand in square brackets, D forms with d. Residues, ends and D or L forms follow the SMILES beside them. NGly(3-aminopropyl) = O=C(CN(CCCN[*:3])[*:1])[*:2]; N(2-Aminoethyl)Gly = O=C(CN(CCN[*:3])[*:1])[*:2]; Adipoyl = O=C(CCCCC(=O)[*:2])[*:1]; Glutaryl = O=C(CCCC(=O)[*:2])[*:1]; Suc = O=C(CCC(=O)[*:2])[*:1]
How the values were obtained:
[1] = target: T1, Substance-K receptor (Homo sapiens, UniProt P21452); experiment: Tested for the biological activity and selectivity against NK-2 receptor
T1 sequence (P21452 whole entry): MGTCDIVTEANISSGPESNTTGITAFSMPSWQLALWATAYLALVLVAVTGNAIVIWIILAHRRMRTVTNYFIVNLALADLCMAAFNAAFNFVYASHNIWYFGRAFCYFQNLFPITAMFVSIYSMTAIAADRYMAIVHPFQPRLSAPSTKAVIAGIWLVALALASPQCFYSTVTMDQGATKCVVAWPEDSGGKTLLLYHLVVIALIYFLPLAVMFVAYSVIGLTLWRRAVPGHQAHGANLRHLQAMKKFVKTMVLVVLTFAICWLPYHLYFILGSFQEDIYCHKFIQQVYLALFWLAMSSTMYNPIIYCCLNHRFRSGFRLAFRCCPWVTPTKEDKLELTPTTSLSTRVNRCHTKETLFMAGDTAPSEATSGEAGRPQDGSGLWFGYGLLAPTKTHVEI

[2] = target: Substance-P receptor (Homo sapiens, UniProt P25103); experiment: Tested for the biological activity and selectivity against NK-1 receptor
Sequence of Substance-P receptor (P25103 whole entry): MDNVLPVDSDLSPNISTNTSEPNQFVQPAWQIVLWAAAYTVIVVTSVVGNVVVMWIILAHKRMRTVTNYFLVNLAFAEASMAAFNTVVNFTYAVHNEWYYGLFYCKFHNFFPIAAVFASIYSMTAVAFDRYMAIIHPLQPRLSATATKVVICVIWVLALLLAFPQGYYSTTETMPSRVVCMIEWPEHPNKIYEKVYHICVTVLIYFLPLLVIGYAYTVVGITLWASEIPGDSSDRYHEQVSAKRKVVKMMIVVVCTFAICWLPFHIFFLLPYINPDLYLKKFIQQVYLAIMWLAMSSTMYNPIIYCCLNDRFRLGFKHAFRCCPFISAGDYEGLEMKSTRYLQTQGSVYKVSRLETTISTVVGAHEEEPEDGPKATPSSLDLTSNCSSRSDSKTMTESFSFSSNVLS

[3] = target: T2, Neuromedin-K receptor (Homo sapiens, UniProt P29371); experiment: Tested for the biological activity and selectivity against NK-3 receptor
T2 sequence (P29371 whole entry): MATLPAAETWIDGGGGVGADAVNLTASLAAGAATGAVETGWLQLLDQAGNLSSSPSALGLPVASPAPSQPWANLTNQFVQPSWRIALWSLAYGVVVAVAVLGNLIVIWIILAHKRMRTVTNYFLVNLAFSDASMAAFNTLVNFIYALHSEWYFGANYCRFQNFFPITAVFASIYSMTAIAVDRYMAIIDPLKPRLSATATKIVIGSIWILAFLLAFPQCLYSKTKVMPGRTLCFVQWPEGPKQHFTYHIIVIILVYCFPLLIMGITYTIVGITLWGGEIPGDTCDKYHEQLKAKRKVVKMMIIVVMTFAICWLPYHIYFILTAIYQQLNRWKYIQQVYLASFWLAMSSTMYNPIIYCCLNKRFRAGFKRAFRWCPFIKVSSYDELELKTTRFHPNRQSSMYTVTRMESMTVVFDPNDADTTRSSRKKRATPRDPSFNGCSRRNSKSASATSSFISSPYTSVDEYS

Structure (SMILES)	EC50 [1] [µM]	EC50 [2] [nM]	EC50 [3] [µM]
CSCC[C@H](NC(=O)[C@H](CC(C)C)NC(=O)CN1CCCNC(=O)CCCCC(=O)N[C@@H](CCCN=C(N)N)C(=O)N[C@@H](Cc2ccccc2)C(=O)N[C@@H](Cc2ccccc2)C1=O)C(N)=O (RFF[NGly(3-aminopropyl)]LM-NH2; linker N-4 via Adipoyl)	> 50	5	> 10
CSCC[C@H](NC(=O)[C@H](CC(C)C)NC(=O)CN1CCCNC(=O)CCC(=O)N[C@@H](CCCN=C(N)N)C(=O)N[C@@H](Cc2ccccc2)C(=O)N[C@@H](Cc2ccccc2)C1=O)C(N)=O (RFF[NGly(3-aminopropyl)]LM-NH2; linker N-4 via Suc)	> 50	180	> 10
CSCC[C@H](NC(=O)[C@H](CC(C)C)NC(=O)CN1CCNC(=O)CCC(=O)NCC(=O)N[C@@H](CCCN=C(N)N)C(=O)N[C@@H](Cc2ccccc2)C(=O)N[C@@H](Cc2ccccc2)C1=O)C(N)=O (GRFF[N(2-Aminoethyl)Gly]LM-NH2; linker N-5 via Suc)	> 50	> 10000	> 10
CSCC[C@H](NC(=O)[C@H](CC(C)C)NC(=O)CN1CCCNC(=O)CCCC(=O)N[C@@H](CCCN=C(N)N)C(=O)N[C@@H](Cc2ccccc2)C(=O)N[C@@H](Cc2ccccc2)C1=O)C(N)=O (RFF[NGly(3-aminopropyl)]LM-NH2; linker N-4 via Glutaryl)	> 50	11	> 10

Reference: ChEMBL document CHEMBL1127569, “Comparison of the conformation of active and nonactive backbone cyclic analogs of substance P as a tool to elucidate features of the bioactive conformation: NMR and molecular dynamics in DMSO and water” (J Med Chem, 1994)
